Data as given in paper PMC8880385 (Pharmaceuticals, 2022).
Entries after “also recorded” stand apart in the source; their conditions may differ.

Legend:
[1] = tested on: O. ochengi adult females; assay: O. ochengi adult female viability (MTT) assay; format: cell-based; conditions: Onchocerca ochengi, 168 h; Day 7, MTT; read-out: O. ochengi Adult Females Inhibition of Survival Day 7 IC50
Excerpt: As humans are the only hosts for O. volvulus which are unavailable for screening, drug discovery relies on the surrogate filarial parasites Brugia spp. and cattle Onchocerca spp. Prioritized compounds from the Brugia worm screens were further tested with female and male adult O. ochengi as well as O. ochengi and L. loa mf.
For these assays, O. ochengi adults were extracted from the subcutaneous nodules of infected cow skins purchased from the local slaughterhouse (Douala, Littoral Region, Cameroon) and incubated in 4 mL complete culture media comprised of RPMI-1640 (Sigma-Aldrich), 5% newborn calf serum, 200 units/mL penicillin, 200 μg/mL streptomycin and 2.5 μg/mL amphotericin B (Sigma-Aldrich) in 12-well plates overnight to validate sterility prior to the assays. Four to eight O. ochengi adult masses were treated individually the following day with a serial dilution of each compound, and controls were treated with 1% DMSO. While in culture, the male worms normally egress from the nodules into the surrounding media and thus can be monitored in parallel for motility. The O. ochengi adult masses were incubated at 37 °C with 5% CO2 for the duration of the assay. Male motility within each well was visually scored every day and over 5 days after compound addition, and female viability within the nodules was assessed by MTT after 7 days as previously described. The O. ochengi adult masses containing female worms were individually placed in wells of a 48-well plate with 0.5 mL of 0.5 mg/mL MTT in PBS and incubated at 37 °C for 30 min. […] Prism 4.0 for Windows was used to calculate IC50s.

[2] = tested on: Loa loa mf; assay: Loa loa microfilariae motility counter-screen; format: cell-based; conditions: Loa loa, 120 h, Day 5
Description: To assess the effects of the compounds on O. ochengi mf, the mf were harvested from infected cow skin and cultured (10–15 mf per well) in 100 µL media in 96-well plates with a confluent feeder layer of monkey kidney epithelial cells (MK2) as previously described. […] All compounds were also counter-screened with L. loa mf collected from infected individuals with approval from the University of Buea (IRB approval # 964-19). Mf were separated from blood cells using a Percoll gradient as previously described and set up for assays (10–15 mf per well).

[3] = Gerbil liver microsome stability assay; format: in vitro ADME
Description: Microsomal stability was tested using 1 µM of each test compound in a 96-well plate containing 0.5 mg/mL gerbil liver microsomes, 1 mM NADPH and/or UDPGA with alamethicin in a buffer of 100 mM potassium phosphate with 3 mM magnesium chloride at pH 7.4. Verapamil was used as a positive control. Reactions were incubated at 37 °C, and 100% acetonitrile with 0.1% formic acid was added at 0, 15, 30 and 60 min timepoints to stop the reaction. Samples were then separated over a Waters Atlantis T3 dC18 reverse phase HPLC column with 0.1% formic acid in water and 0.1% formic acid in acetonitrile. Samples were analyzed using an AB Sciex API 4000 LC–MS/MS.

[4] = tested on: Brugia pahangi female worms; assay: Ex vivo microfilarial release and embryograms of female worms from treated gerbils; format: in vivo; conditions: females from gerbils treated IP 1 mg/kg
Description: To test the effects of the compounds on female worm fertility, all surviving female worms were examined ex vivo to quantify the amount of mf released and profile the various stages of embryonic development within the uteri of individual female worms. After necropsy, female worms were incubated in individual wells of a 24-well plate with 2 mL Brugia culture media at 37 °C and 5% CO2. After 24 h, the number of mf released by each adult female was determined by counting the mf in a 0.5 mL sample of the media and multiplying by 4 to calculate the total number of mf. Additionally, embryogram analyses on the individual female worms was performed as described. […] The embryonic developmental stages (eggs, embryos, pre-mf and mf) were determined in two 10 μL aliquots using a compound microscope and hemocytometer. A minimum of 200 events were assessed from each female worm and at least 3 females were analyzed per animal from at least 3 animals per treatment group. The intra-uterine embryogram was expressed as the relative proportions of different stages of development: eggs, embryos, pre-mf, stretched mf and deformed embryos in the total number of events.
Worm burden, peritoneal mf counts, overnight mf sheds and qPCR data were analyzed using a Kruskal–Wallis test followed by Dunn’s multiple comparison. […] All statistical analyses were determined using Prism 8 version 8.2.0(272).

[5] = tested on: Brugia pahangi adult females; assay: Transmission electron microscopy of B. pahangi adult females from treated gerbils; format: in vivo; conditions: females from gerbils treated with 1 mg/kg
Description: B. pahangi adult females recovered from gerbils treated with 1 mg/kg THP and analog 06 were prepared as above except worms were cut into approximately 5 mm long pieces taken from the center of the worm. Pieces were washed for one hour in 0.1 M sodium cacodylate followed by post-fixation in 1% osmium tetroxide for 1 h and again washed in the same buffer for another hour. Sample pieces were dehydrated using an increasing concentration of ethanol and resin (Durcupan, by Fluka) and transitioned using propylene oxide. Samples were left overnight in pure resin at 4 °C. Samples pieces were embedded using Beem capsules (Electron Microscopy Sciences) and cured at 60 °C overnight. All reagents were purchased from Electron Microscopy Sciences.
Blocks were trimmed and sectioned using a diamond knife on a Sorvall MT-6000 ultramicrotome, collected on formvar coated 1 mm slot grids and contrasted using uranyl acetate and lead citrate. Grids were imaged on a Philips CM100 transmission electron microscope at 80 kV and images were collected using a Gatan Orius imaging system.

[6] = tested on: Brugia pahangi adult females; assay: In vitro motility assay with adult female Brugia pahangi (Worminator)

Compound: Cc1ccc2c(ccc(/C=C/c3c(C)nn(-c4ccccc4)c3C)[n+]2C)c1.[I-] [Analog 06, 2-[(E)-2-(3,5-dimethyl-1-phenyl-1H-pyrazol-4-yl)ethenyl]-1,6-dimethylquinolin-1-ium iodide]
- IC50 [1]: 2990 nM
- inhibition at 10 µM [2]: 88%
- CLint ([3]; gerbil liver microsomes): 0.933 µL/min/mg Protein
- half-life at 1 µM ([3]; pH 7.4, 1 µM compound, 0.5 mg/mL microsomes, read-out: Gerbil Liver Microsome T1/2): 1480 min
- Deformed embryos in gonads of female worms (embryogram) vs vehicle [4]: statistically significant increase in the number of deformed embryos
- Mf released by female worms after 24 h ex vivo (overnight shed) vs vehicle [4]: significantly lower numbers of mf; also recorded: significantly reduced
- Ultrastructure of gonads / developing microfilariae of female worms (TEM) ([5]; 1 mg/kg): more severe effect on the gonads
- Ultrastructure of gonads / developing microfilariae of female worms (TEM) ([5]; listed as 06, 1 mg/kg): abnormal ultrastructural phenotypes
- Brugia Adult Females Inhibition of Motility Day 3 @ 1 µM ([6]; 1 µM, Day 3, 1 µM): 71%
- inhibition at 1 µM ([6]; Brugia pahangi, 72 h, read-out: Brugia Adult Females Inhibition of Motility Day 3 @ 1 µM, 1 µM, Day 3): > 70%
- IC50 ([6]; Brugia pahangi, 72 h, read-out: Brugia Adult Females Inhibition of Motility Day 3 IC50): 733 nM
- Brugia Adult Females Inhibition of Motility Day 3 IC50 ([6]; Day 3): sub-micromolar range
